Assay results: patent US9440943B2, “Tricyclic sulfone compounds and methods of making and using same” (Zafgen, Inc., priority 2012, dated 2016)

Target: T1, Human recombinant MetAP2 (Homo sapiens, UniProt P50579)
T1 construct: made in house; host or cells: Sf9 insect cells
Test: recombinant human MetAP2 inhibition assay (MAS substrate, amino acid oxidase/Amplex red fluorescence)
Assay type: biochemical
Conditions: manganese enzyme, 30 minutes at 25° C., pH 7.5, 0.75 mM MAS substrate, 1% DMSO
Experimental: Compounds are tested for their capacity to inhibit recombinant human MetAP2 activity using the following assay.
Human recombinant MetAP2 expressed in Sf9 cells followed by affinity purification and EDTA treatment to remove endogenous active site cation was dialysed against MnCl2 to produce the manganese enzyme used in the assay. The assay was carried out for 30 minutes at 25° C. in 50 mM HEPES buffer containing 100 mM NaCl, at pH 7.5. The presence of 0.75 mM Methionine-Alanine-Serine (MAS) substrate and 50 μg/mL amino acid oxidase using a dilution of purified MetAP2 gives >3-fold signal:noise. Cleavage of the substrate by MetAP2 and oxidation of free methionine by amino acid oxidase was detected and quantified using fluorescence generated by Amplex red (10-acetyl-3,7-dihydroxyphenoxazine) in combination with horseradish peroxidase which detects H2O2 released during the oxidation step. The fluorescent signal was detected using a multiwell fluorimeter. Compounds were diluted in DMSO prior to addition to assay buffer, the final DMSO concentration in the assay being 1%.
The IC50 is defined as the concentration at which a given compound achieves 50% inhibition of control. IC50 values are calculated using the XLfit software package (version 2.0.5).

T1 sequence (P50579 whole entry): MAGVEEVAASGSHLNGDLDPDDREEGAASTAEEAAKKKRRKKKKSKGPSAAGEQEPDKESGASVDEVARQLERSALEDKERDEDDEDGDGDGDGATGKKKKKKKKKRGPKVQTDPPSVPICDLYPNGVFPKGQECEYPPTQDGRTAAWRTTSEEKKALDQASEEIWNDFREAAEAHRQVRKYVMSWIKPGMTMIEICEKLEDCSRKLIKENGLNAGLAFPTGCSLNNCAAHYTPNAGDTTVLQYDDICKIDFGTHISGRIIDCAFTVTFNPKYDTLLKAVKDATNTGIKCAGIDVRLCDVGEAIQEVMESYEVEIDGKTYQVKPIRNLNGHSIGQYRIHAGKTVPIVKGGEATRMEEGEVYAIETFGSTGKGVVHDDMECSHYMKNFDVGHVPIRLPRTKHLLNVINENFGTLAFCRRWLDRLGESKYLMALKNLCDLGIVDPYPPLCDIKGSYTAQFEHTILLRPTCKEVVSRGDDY

IC50 | Structure (SMILES)
> 0.1 µM | CCN(CC)C/C=C\c1cc(F)ccc1S(=O)(=O)Cc1ccc2c(c1C(=O)O)OC[C@H]1C[C@@H]21 (racemic) [Example 1, Cis-(1aRS,7bSR)-5-[2-((Z)-3-diethylaminoprop-1-enyl)-4-fluoro-benzenesulfonylmethyl]-1,1a,2,7b-tetrahydrocyclopropa[c]chromene-4-carboxylic acid]
> 0.1 µM | CCN(CC)C/C=C\c1cc(F)ccc1S(=O)(=O)Cc1ccc2c(c1C(=O)O)OC[C@@H]1C[C@H]21 [Example 2]
